Results taken from patent US12552799B2, “Triazolone compounds” (Nxera Pharma UK Limited, priority 2020, dated 2026).
pIC50, pKi: −log10 of the molar value.

Legend:
[1] = target: human adenosine A1 receptor (Homo sapiens (Human), UniProt P30542); experiment: Adenosine receptor binding assay, A1 ([3H]DPCPX inhibition binding on membranes); conditions: 1 nM [3H]DPCPX, 25° C., 1 h, Ki from IC50 by Cheng-Prusoff
Method: (§1) Inhibition binding assays were performed using 0.2 μg of membranes prepared from HEK293 cells infected with BacMam human adenosine A2A receptor or 1.4 μg of membranes prepared from HEK293 cells infected with BacMam human adenosine A1 receptor. Membranes were incubated in 50 mM Tris-HCl (HEK293-hA2A; pH 7.4) or 50 mM Tris-HCl, 100 mM NaCl, 10 mM MgCl2 (CHO-hA1; pH 7.4) in the presence of varying concentrations of test compound and 1 nM [^3H]ZM241385 (HEK293-hA2A) or [^3H]DPCPX (CHO-hA1) at 25° C. for 1 h. The assay was then terminated by rapid filtration onto GF/B grade Unifilter plates using a TomTec cell harvester, followed by 5×0.5 ml washes with ddH2O. Nonspecific binding was defined in the presence of 1 μM CGS15943 (HEK293-hA2A) or 1 μM DPCPX (CHO-hA1). Bound radioactivity was determined by liquid scintillation counting and inhibition curves were analysed using a four-parameter logistic equation. IC50 values were converted to Ki values with the Cheng-Prusoff equation using a KD value derived from saturation binding studies.

[2] = target: human adenosine A2A receptor (Homo sapiens (Human), UniProt P29274); experiment: Adenosine receptor binding assay, A2A ([3H]ZM241385 inhibition binding on HEK293 membranes); conditions: 1 nM [3H]ZM241385, 25° C., 1 h, Ki from IC50 by Cheng-Prusoff
Method: as §1

[3] = target: human CB-1 cannabinoid receptor (Homo sapiens (Human), UniProt P21554); experiment: CB-1 receptor radioligand binding assay ([3H]CP 55940, transfected CHO cell membranes); conditions: 0.5 nM [3H]CP 55940, 120 min at 37° C., agonist site
Method: Nonspecific binding is determined in the presence of 10 μM WIN 55212-2.
Following incubation, the samples are filtered rapidly under vacuum through glass fiber filters (GF/B, Packard) presoaked with 0.3% PEI and rinsed several times with an ice-cold buffer containing 50 mM Tris-HCl (pH 7.4) and 0.5% BSA using a 96-sample cell harvester (Unifilter, Packard). The filters are dried then counted for radioactivity in a scintillation counter (Topcount, Packard) using a scintillation cocktail (Microscint O, Packard).
The standard reference compound is CP 55940 which is tested in each experiment at several concentrations to obtain a competition curve from which its IC50 is calculated.
In Table 5, blank entries for Ki indicate that the observed binding was too weak to measure a Ki value.

human CB1 receptor = human CB1 receptor (Homo sapiens (Human), UniProt P21554); experiment: CB1 receptor antagonism, agonist-induced cAMP modulation (HTRF) in transfected CHO cells; type: cell-based; conditions: inhibition of control response to 3 nM CP 55940, cAMP HTRF, read-out: Antag IC50
Method: Receptor antagonism: Evaluation of the antagonist activity of compounds at the human CB1 receptor expressed in transfected CHO cells, determined by measuring their effects on agonist-induced cAMP modulation using the HTRF detection method.
The cells are suspended in HBSS buffer (Invitrogen) complemented with 20 mM HEPES (pH 7.4), then distributed in microplates at a density of 5.10^3 cells/well and preincubated for 5 min at room temperature in the presence of either of the following: HBSS (stimulated control), the reference antagonist AM 281 at 3 μM (basal control) or various concentrations (IC50 determination), or the test compounds.
Thereafter, the reference agonist CP 55940 and the adenylyl cyclase activator NKH 477 are added at respective final concentrations of 3 nM and 3 μM.
For basal control measurements, CP 55940 is omitted from the wells containing 3 μM AM 281.
Following 20 min incubation at 37° C., the cells are lysed and the fluorescence acceptor (D2-labeled cAMP) and fluorescence donor (anti-cAMP antibody labeled with europium cryptate) are added.
After 60 min at room temperature, the fluorescence transfer is measured at λex=337 nm and λem=620 and 665 nm using a microplate reader (Rubystar, BMG). The cAMP concentration is determined by dividing the signal measured at 665 nm by that measured at 620 nm (ratio).
The results are expressed as a percent inhibition of the control response to 3 nM CP 55940.
The standard reference antagonist is AM 281, which is tested in each experiment at several concentrations to generate a concentration-response curve from which its IC50 value is calculated.

human adenosine A1 receptor, sequence (P30542 whole entry): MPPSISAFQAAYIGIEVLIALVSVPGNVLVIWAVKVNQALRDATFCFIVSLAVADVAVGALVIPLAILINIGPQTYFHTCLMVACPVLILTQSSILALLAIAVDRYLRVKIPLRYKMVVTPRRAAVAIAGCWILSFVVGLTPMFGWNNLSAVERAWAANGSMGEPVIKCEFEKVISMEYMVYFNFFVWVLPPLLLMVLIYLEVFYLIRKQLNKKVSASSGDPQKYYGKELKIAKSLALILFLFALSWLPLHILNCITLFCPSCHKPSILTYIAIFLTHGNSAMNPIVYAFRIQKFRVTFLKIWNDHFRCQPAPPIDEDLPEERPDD
human CB-1 cannabinoid receptor, sequence (P21554 whole entry): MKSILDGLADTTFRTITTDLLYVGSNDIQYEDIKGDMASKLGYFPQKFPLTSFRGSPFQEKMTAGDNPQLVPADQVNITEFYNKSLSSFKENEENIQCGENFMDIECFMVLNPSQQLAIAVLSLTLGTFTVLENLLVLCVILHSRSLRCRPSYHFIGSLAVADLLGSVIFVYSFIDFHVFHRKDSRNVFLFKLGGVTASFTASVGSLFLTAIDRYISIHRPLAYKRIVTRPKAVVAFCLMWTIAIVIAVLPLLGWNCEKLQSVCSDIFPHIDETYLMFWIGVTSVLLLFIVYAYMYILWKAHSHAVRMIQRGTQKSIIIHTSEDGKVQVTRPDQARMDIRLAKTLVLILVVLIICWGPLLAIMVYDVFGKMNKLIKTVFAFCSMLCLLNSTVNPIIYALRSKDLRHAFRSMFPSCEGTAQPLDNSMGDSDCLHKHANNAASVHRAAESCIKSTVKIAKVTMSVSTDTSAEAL
human CB1 receptor, sequence (P21554 whole entry): as above
human adenosine A2A receptor, sequence (P29274 whole entry): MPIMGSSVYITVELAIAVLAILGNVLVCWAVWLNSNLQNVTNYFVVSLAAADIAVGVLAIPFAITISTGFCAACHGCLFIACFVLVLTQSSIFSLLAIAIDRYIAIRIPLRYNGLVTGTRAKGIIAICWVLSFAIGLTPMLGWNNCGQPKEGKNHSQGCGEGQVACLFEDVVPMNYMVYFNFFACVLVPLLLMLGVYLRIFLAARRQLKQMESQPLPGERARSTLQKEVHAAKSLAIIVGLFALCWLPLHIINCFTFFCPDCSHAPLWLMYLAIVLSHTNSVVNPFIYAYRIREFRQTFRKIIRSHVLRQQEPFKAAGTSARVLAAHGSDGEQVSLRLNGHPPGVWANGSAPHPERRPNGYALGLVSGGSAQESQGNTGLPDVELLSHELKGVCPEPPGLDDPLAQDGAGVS

A1 pKi [1] | A2A pKi [2] | pKi [3] | pIC50 (human CB1 receptor) | Ki ([1]; read-out: A1 pKi (converted)) [µM] | Ki ([2]; read-out: A2A pKi (converted)) [µM] | Structure (SMILES)
<5.4 | 8.3 | 4.47 | 4.83 | – | – | C[C@@H]1CN(c2c(-c3ccccc3)nc(N)n3c(=O)n(CCC(F)(F)F)nc23)C[C@H](C)O1 [Example 1-1, 5-amino-8-[(cis)-2,6-dimethylmorpholin-4-yl]-7-phenyl-2-(3,3,3-trifluoropropyl)-[1,2,4]triazolo[4,3-c]pyrimidin-3-one]
5.9 | 7.9 | 5.02 | 5.15 | – | – | C[C@@H]1CN(c2c(-c3ccccc3)nc(N)n3c(=O)n(Cc4ccc(F)cn4)nc23)C[C@H](C)O1 [Example 1-14, 5-amino-8-[(cis)-2,6-dimethylmorpholin-4-yl]-2-[(5-fluoro-2-pyridyl)methyl]-7-phenyl-[1,2,4]triazolo[4,3-c]pyrimidin-3-one]
6.5 | 9.3 | 5.43 | 5.62 | – | – | Cc1cc(-c2c(-c3ccc(F)cc3)nc(N)n3c(=O)n(CCC(F)(F)F)nc23)cc2ocnc12 [Example 4-1, 5-amino-7-(4-fluorophenyl)-8-(4-methyl-1,3-benzoxazol-6-yl)-2-(3,3,3-trifluoropropyl)-[1,2,4]triazolo[4,3-c]pyrimidin-3-one]
– | – | 5.26 | 5.89 | 0.0251 | 0.000251 | Cc1cc(-c2c(-c3ccccc3)nc(N)n3c(=O)n(Cc4ccc(F)cn4)nc23)cc2cn[nH]c12 [Example 4-4, 5-amino-2-[(5-fluoro-2-pyridyl)methyl]-8-(7-methyl-1H-indazol-5-yl)-7-phenyl-[1,2,4]triazolo[4,3-c]pyrimidin-3-one]
7.0 | 9.0 | 4.61 | 4.16 | – | – | Cc1cc(-c2c(-c3ccccc3)nc(N)n3c(=O)n(Cc4ccc(F)cn4)nc23)cc2nc[nH]c12 [Example 4-5, 5-amino-2-[(5-fluoro-2-pyridyl)methyl]-8-(7-methyl-1H-benzimidazol-5-yl)-7-phenyl-[1,2,4]triazolo[4,3-c]pyrimidin-3-one]
8.8 | 10.1 | 4.41 | 4.81 | – | – | Cc1ocnc1Cn1nc2c(-c3cc(C)c4[nH]ncc4c3)c(-c3ccccc3)nc(N)n2c1=O [Example 4-9, 5-amino-8-(7-methyl-1H-indazol-5-yl)-2-[(5-methyloxazol-4-yl)methyl]-7-phenyl-[1,2,4]triazolo[4,3-c]pyrimidin-3-one]
8.7 | 9.8 | 5.60 | 5.59 | – | – | Cc1ocnc1Cn1nc2c(-c3cc(Cl)c4[nH]ncc4c3)c(-c3ccccc3)nc(N)n2c1=O [Example 4-11, 5-amino-8-(7-chloro-1H-indazol-5-yl)-2-[(5-methyloxazol-4-yl)methyl]-7-phenyl-[1,2,4]triazolo[4,3-c]pyrimidin-3-one]
7.2 | 9.3 | 4.40 | 4.65 | – | – | Cc1ocnc1Cn1nc2c(-c3cc(C)c4[nH]ccc4c3)c(-c3ccccc3)nc(N)n2c1=O [Example 4-12, 5-amino-8-(7-methyl-1H-indol-5-yl)-2-[(5-methyloxazol-4-yl)methyl]-7-phenyl-[1,2,4]triazolo[4,3-c]pyrimidin-3-one]
